Test system: THP-1 cells
Test: Cytotoxicity of TCEP digestion media (LIVE/DEAD stain, flow cytometry)
Format: cell-based
Settings: TCEP 0.1 mM to 100 mM, 10 minutes
Procedure: Cell death was analyzed by flow cytometry after staining using the LIVE/DEAD fixable Violet Dead Cell Stain. Multiple comparisons among groups were determined using one-way ANOVA followed by a post-hoc test. P-value: *p<0.05, **p<0.01.
The ability to induce on-demand digestion of the MNs using a reducing agent (Tris (2-carboxyethil) phosphine, TCEP) was also characterized. […] THP-1 cells were incubated with different concentrations of digestion media (TCEP solution in supplemented media), ranging from 0.1 mM to 100 mM, for 10 minutes. Thereafter, digestion media was removed, and cells were stained using the LIVE/DEAD fixable Violet Dead Cell Stain Kit (ThermoFisher Scientific, USA) following the manufacturer's guidelines. Dead cells were analyzed by flow cytometry using a BD LSRFortessa™ flow cytometer.

## O=C(O)CCP(CCC(=O)O)CCC(=O)O [TCEP, tris(2-carboxyethyl)phosphine]
  cell viability: did not affect cell viability

From patent US20240149033A1, “MICRONEEDLE COMPOSITIONS AND METHODS OF DELIVERY USING THE SAME” (The Brigham and Women`s Hospital, Inc., priority 2021, published 2024)
